Reference: paper PMC8100298, “Histone deacetylase inhibitor resminostat in combination with sorafenib counteracts platelet-mediated pro-tumoral effects in hepatocellular carcinoma” (Scientific Reports, 2021)
Read-outs that look alike come from different tables or passages of the source.

Experiments:
Type in all cases: cell-based
HepG2 = assay: Proliferation assay; details: for EC50: Homo sapiens, 96 h, 4 days
Excerpt: (§1) The cell lines HepG2 (ACC180, RRID:CVCL_0027; DMSZ, Braunschweig Germany), SNU-475 (CRL-2236, Lot. 58483227, RRID:CVCL_0497; ATCC, Manassas, Virginia, US), SNU-387 (CRL-2237, Lot. 58483192, RRID:CVCL_0250; ATCC, Virginia, US), PLC/PRF/5 (300315, Lot. 812, RRID:CVCL_0485; CLS Cell Lines Service GmbH, Eppelheim, Germany) and HuH-7 (JCRB0403, Lot. 2272008, RRID:CVCL_0336; JCRB Cell Bank, Japan) were propagated according to the distributor’s guidelines. The authenticity of the cell lines was confirmed by short tandem repeat (STR) analysis (DSMZ, Braunschweig, Germany). Mycoplasma contamination was ruled out by PCR testing. For assays with platelet lysate (PL), FBS was substituted with 10% PLTMax Human Platelet Lysate (Cat. Nr. SCM141, Lot Number VP1602259; Millipore, Burlington, Massachusetts, US). The PL was supplemented with 20 U/ml Heparin (Heparin sodium salt from porcine intestinal mucosa, H4784-250MG; Sigma-Aldrich, Taufkirchen, Germany) to prevent coagulation.
(§2) Prior to the assay, the optimal seeding density was determined for each cell line to obtain an exponential growth during the experiment (2000 to 6000 cells per 96-well). Drug dilution series with 8 concentrations were prepared for EC50 determinations of single drugs. Three wells for each concentration were seeded (technical replicates). For drug combinations, dilution series of six concentrations for each drug alone or in combination at equal ratio were prepared. After 4 h of cell seeding, the drugs were added to the cells. Each 96-well plate contained a vehicle control (0.1% or 0.2% DMSO), a death control Ro 106-9920 (Tocris Cookson Ltd., Bristol, UK) a growth control (untreated cells compared to vehicle treated cells), and blank wells without cells. The proliferation assay was stopped after 4 days by crystal violet staining of the cells (0.5% in 20% methanol). Following extraction of the crystal violet with 8% acetic acid, the eluates were quantified photometrically at 570 nm and the reference wavelength 690 nm in an absorbance microplate reader (Tecan Sunrise; Tecan, Männedorf, Switzerland). Only readouts from 96-well plates with a Z-factor between 0.5 and 1.0 were used. Blank OD values were subtracted from the mean OD values. Nonlinear curve fitting and EC50 calculation was performed with Excel Solver.

HuH-7 = assay: Proliferation assay; details: for EC50: Homo sapiens, 96 h, 4 days
Excerpt: as §1, §2

PLC/PRF/5 = assay: Proliferation assay; details: for EC50: Homo sapiens, 96 h, 4 days
Excerpt: as §1, §2

PLC/PRF/5 HCC cells = assay: Intracellular flow cytometry (AcLys, H3K27Ac); details: 1 µM or 3 µM, 24 hours (Fig. S1B)
Procedure: Supplemental Figures and Figure legends
Figure S1. Inhibition of cancer cell growth by the broad-spectrum HDACI resminostat
A. Inhibition of HDAC1 to 11 by resminostat determined by in vitro HDAC activity assays.
IC50 data from three independent experiments are shown as mean ± SD.
B. Intracellular flow cytometry using antibodies targeting acetyl lysine (AcLys) and the H3K27
acetylation mark (H3K27Ac). IgG isotype controls were used for each antibody. PLC/PRF/5
HCC cells were treated with vehicle control ( 0.1 % DMSO), 1 µM or 3 µM resminostat for 24
hours. For AcLys, the geometric mean fluore scence intensities (gMFI) are shown. For
H3K27Ac, the ratios of the gMFIs for H3K27Ac relative to Histone H3 are shown. D ata of
three technical replicates are presented as mean ± SD.
(1 picture or pasted object on this page, not shown here)
(100×, 78440; Thermo Scientific, Massachusetts, US). Following incubation for 1 h at 4°C,
The protein concentration of the
Fisher Scientific, Massachusetts, US ). Equal amounts of protein lysates and a pre-stained
US) and transferred to PVDF membranes. The membranes were probed using the relevant […]
secondary fluorescence labelled antibodies for 45 min in the dark at RT, washed twice in […]
cells were measured using the Miltenyi MACSQuant Analyser 10 (Miltenyi) and analysed with […]
counted in a Neubauer chamber before the required number of platelets was activated by […]

In the case of `CN(C)Cc1ccc(S(=O)(=O)n2ccc(/C=C/C(=O)NO)c2)cc1` [resminostat, Resminostat], the “Ratio PL/FBS” value (HepG2; HepG2, ratio of PL/FBS EC50s) is reported as 1.0, the EC50 (HepG2; HepG2, fetal bovine serum, read-out: EC50 in FBS) is reported as 500 ± 100 nM and the EC50 (HepG2; HepG2, platelet lysate, read-out: EC50 in PL) is reported as 500 ± 300 nM. The EC50 (HuH-7; HuH-7, fetal bovine serum, read-out: EC50 in FBS) was 1000 ± 300 nM, the EC50 (HuH-7; HuH-7, platelet lysate, read-out: EC50 in PL) was 1300 ± 200 nM and the “Ratio PL/FBS” value (HuH-7; HuH-7, ratio of PL/FBS EC50s) was 1.3. The EC50 (PLC/PRF/5; PLC/PRF/5, fetal bovine serum, read-out: EC50 in FBS) was 1100 ± 200 nM, the EC50 (PLC/PRF/5; PLC/PRF/5, platelet lysate, read-out: EC50 in PL) was 900 ± 100 nM and the “effect of platelet factors on potency and efficacy” value (PLC/PRF/5; PLC/PRF/5, platelet lysate vs FBS dose-response curves (Fig. 2A)) was “unaffected”. The “Ratio PL/FBS” value (PLC/PRF/5; PLC/PRF/5, ratio of PL/FBS EC50s) was 0.8, the “acetylation of histone mark H3K27” value (PLC/PRF/5 HCC cells) was “hyperacetylation” and the “global acetylation level (AcLys)” value (PLC/PRF/5 HCC cells) was “increase of the global acetylation level in HCC cells in a dose-dependent manner”.
